# Source: US8785499B2 (priority 2009, dated 2014)
# Assays:
# ecNadD = ecNadD (Escherichia coli (strain K12), UniProt P0A752); assay: biochemical; type: biochemical
# baNadD = baNadD (Bacillus anthracis, UniProt C3L5T6); assay: biochemical; type: biochemical
# baNadD, sequence (C3L5T6 whole entry, looked up): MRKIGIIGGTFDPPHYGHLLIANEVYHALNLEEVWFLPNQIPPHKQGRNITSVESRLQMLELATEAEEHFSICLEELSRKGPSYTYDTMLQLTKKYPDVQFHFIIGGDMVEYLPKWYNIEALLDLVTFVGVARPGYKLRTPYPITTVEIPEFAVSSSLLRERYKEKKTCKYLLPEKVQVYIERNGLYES
SMILES,[…]. coli (ecNadD) [%],[…]. anthracis (baNadD) [%],also measured
O=C1NC(=O)/C(=C\c2ccc(C(=O)O)cc2)N1 [compound 007],54,34,
CC(=O)Nc1ccc(S(=O)(=O)Nc2ccc(Cl)cc2Cl)cc1 [compound 008],47,0,
COC(=O)c1sc(NC(=O)/C=C/C(=O)O)nc1C [compound 009],45,0,
NS(=O)(=O)c1ccc(Nc2nc(-c3ccc(O)c(O)c3)cs2)cc1 [compound 010],32,89,
O=C(Nc1ncccn1)c1sc2ccccc2c1Cl [compound 011],31,0,
COc1cc(/C=N/c2ccc3[nH]c(=O)[nH]c3c2)ccc1OC(C)=O [compound 012],30,0,
N=C(N)NNC(=S)Nc1ccc(Cl)cc1 [compound 013],30,0,
Cc1cc(Nc2cccc(C(=O)O)c2)n2ncnc2n1 [compound 014],30,0,
O=C1Nc2ccccc2/C1=C/Nc1ccc(Br)cc1F [compound 015],,,IC50 (ecNadD; IC50 ecNadD): 30 µM; inhibition at 100 µM (ecNadD; read-out: INHIBITION (%) E. coli): 29%; IC50 (baNadD; IC50 baNadD): 16 µM; inhibition at 50 µM (baNadD; read-out: INHIBITION (%) B. anthracis): 57%
O=C(O)c1ccc([N+](=O)[O-])cc1C(=O)Nc1ccc(Cl)cc1 [compound 016],29,75,
O=C(O)CCC(=O)NNC(=O)c1cccc(O)c1 [compound 017],27,0,
Nc1nnc(CCSc2cc(Cl)ccc2Cl)s1 [compound 018],27,0,
N#CC1=C(N)OC(c2cccs2)=C(C#N)C1c1cccs1 (centres unmarked) [compound 019],26,27,
O=C(Nc1ccc(NC(=O)c2cccs2)cc1)c1ccccc1 [compound 020],26,0,
NS(=O)(=O)c1ccc(N/C=C/C(=O)c2ccc(Cl)s2)cc1 [compound 021],24,79,
Nc1nc(-c2ccc(NC(=O)c3ccc(Cl)cc3)cc2)cs1 [compound 022],24,31,
Cc1c(NC(=O)CSS(=O)(=O)O)c(=O)n(-c2ccccc2)n1C [compound 023],24,34,
O=C(O)CCCCCN1C(=O)c2ccc(F)cc2C1=O [compound 024],23,0,
Cc1ccc(F)cc1NC(=O)CSCC(=O)O [compound 025],23,55,
O=c1[nH]c(SCc2nc3ccccc3[nH]2)nc2ccccc12 [compound 026],23,0,

SMILES,[…]. coli (ecNadD) [%],[…]. anthracis (baNadD) [%],also measured
O=C(O)c1cccc(NCN2C(=O)c3ccccc3C2=O)c1 [compound 027],23,0,
O=C(NNC(=O)c1ccco1)c1cccc(I)c1 [compound 028],23,7,
O=C(O)CCC(C(=O)O)N1C(=O)c2cc(Cl)c(Cl)cc2C1=O (centres unmarked) [compound 029],22,0,
O=C(O)c1ccc(Nc2nc(-c3ccc(Cl)cc3)cs2)cc1 [compound 030],22,28,
O=C(O)c1nccnc1C(=O)Nc1ccc(Br)cc1 [compound 031],21,4,
COc1c(C)cc(Br)cc1C(=O)Nc1ccc(S(N)(=O)=O)cc1 [compound 032],21,8,
Nc1cc(NCCCCCC(=O)O)ccc1[N+](=O)[O-] [compound 034],21,1,
CC(=O)Nc1ccc(NS(=O)(=O)c2ccc(O)c(C(=O)O)c2)cc1 [compound 035],20,0,
O=C(Nc1ccccc1C(=O)O)c1ccc(Br)o1 [compound 036],20,0,
COc1cc(Br)cc(/C=C2/SC(=S)NC2=O)c1O [compound 037],20,0,
Oc1c(Cl)cc(Cl)cc1/C=N/c1nc[nH]n1 [compound 038],20,0,
Nc1nonc1C(=O)N/N=C/c1cc(Br)cc(Br)c1O [compound 040],19,20,
O=C(O)[C@@H]1CSC(c2ccc(Cl)cc2Cl)N1 (some centres unmarked) [compound 041],19,39,
Nc1ccc(NC(=O)c2cc(Cl)ccc2O)c(Cl)c1 [compound 043],18,2,
Oc1c(Br)cc(Cl)cc1/C=N/c1ccccn1 [compound 044],17,0,
CCOc1cc(/C=N/O)cc(I)c1O [compound 045],17,0,
Cc1ccc(OCC(=O)Nc2nnc[nH]2)c(Br)c1 [compound 046],17,71,
O=c1cc(O)c2sc(Nc3cccc(Cl)c3)nc2[nH]1 [compound 047],17,0,
NS(=O)(=O)c1ccc(CCNC(=O)c2cccc(Cl)c2)cc1 [compound 048],16,14,
O=C(/C=C/c1ccc2c(c1)OCO2)Nc1ncc([N+](=O)[O-])s1 [compound 049],16,10,

SMILES,[…]. coli (ecNadD) [%],[…]. anthracis (baNadD) [%],also measured
NS(=O)(=O)c1ccc(NC(=O)c2cc3cc(Br)ccc3oc2=O)cc1 [compound 050],16,38,
Nc1nonc1C(=O)NCCNS(=O)(=O)Cc1ccccc1 [compound 051],16,0,
COC(=O)c1cc(O)c(C(=O)Nc2ccc(Cl)c(Cl)c2)s1 [compound 052],16,24,
CCc1c(O)nc(SC2CC(=O)N(c3ccccc3)C2=O)nc1O (centres unmarked) [compound 053],16,0,
Nc1ccc(/C=C/c2cccc(C(=O)O)n2)cc1 [compound 054],15,27,
CC(Sc1ccccc1)C(=O)Nc1ccccc1C(=O)O (centres unmarked) [compound 055],15,15,
O=[N+]([O-])c1ccc(/C=N\NS(=O)(=O)c2ccc(Cl)cc2)o1 [compound 057],15,28,
Nc1nnc(SCC(=O)Nc2nccs2)n1-c1ccccc1 [compound 058],15,0,
NS(=O)(=O)c1ccc2nc(NC(=O)c3ccncc3)sc2c1 [compound 059],15,0,
Oc1ccc(Br)cc1/C=N/Nc1nnn[nH]1 [compound 060],15,0,
O=[N+]([O-])/C=C/Nc1cccc([N+](=O)[O-])c1 [compound 061],14,0,
N/C(=N\OCC(=O)Nc1ccc([NH2+][O-])cc1)c1nonc1N [compound 062],14,0,
O=[N+]([O-])c1cc2c(cc1/C=N/Nc1nnn[nH]1)OCO2 [compound 063],14,81,
CCn1c(SCC(N)=O)nnc1-c1ccc(Cl)cc1 [compound 065],14,0,
Cc1cc(N/C=C2\N=C(c3ccc(Cl)cc3)OC2=O)no1 [compound 066],13,80,
O=C(O)c1cc(C(=O)O)c2cc(Oc3ccc4nc(C(=O)O)cc(C(=O)O)c4c3)ccc2n1 [compound 067],13,1,
O=C1C/C(=C/NCCc2ccc(O)cc2)C(=O)N1 [compound 068],13,10,
CN1C(=O)S/C(=C\c2ccc(OCC(=O)O)c(I)c2)C1=O [compound 069],13,7,
O=C(O)/C=C/c1ccc(S(=O)(=O)NCc2ccc3c(c2)OCO3)cc1 [compound 070],13,5,
Cc1ccc(C(=O)Nc2ccccc2)cc1S(=O)(=O)Nc1ccccn1 [compound 071],12,7,
